± gives the expanded uncertainty stated by the source.
Key:
[1] = DTA; for Normal melting temperature: Crystal 1
[2] = Molar enthalpy of transition or fusion; conditions: DSC

Compound | Normal melting temperature [1] | Triple point temperature ([1]; Crystal 2) | Triple point temperature ([1]; Crystal 3) | Molar enthalpy of transition or fusion ([2]; Crystal 1) | Molar enthalpy of transition or fusion ([2]; Crystal 2) | Molar enthalpy of transition or fusion ([2]; Crystal 3) | Triple point temperature ([1]; Crystal 4) | Triple point temperature ([1]; Crystal 5) | Molar enthalpy of transition or fusion ([2]; Crystal 4) | Molar enthalpy of transition or fusion ([2]; Crystal 5)
CCCCC(=O)[O-].[K+] [potassium pentanoate] | 443.6 ± 0.5 °C | 585.4 ± 0.5 K | 397.6 ± 0.5 K | 1.14 ± 0.0669 kcal/mol | 4.16 ± 0.134 kcal/mol | 0.0938 ± 0.0311 kcal/mol | – | – | – | –
CCCCCCC(=O)[O-].[K+] [potassium heptanoate] | 449 ± 1 °C | 571 ± 0.5 K | 333.7 ± 0.5 K | 0.804 ± 0.0813 kcal/mol | 4.22 ± 0.12 kcal/mol | 3.14 ± 0.12 kcal/mol | – | – | – | –
CCCCCCCCCC(=O)[O-].[K+] [potassium decanoate] | 418.4 ± 0.5 °C | 546.5 ± 0.5 K | 528 ± 1 K | 0.402 ± 0.0502 kcal/mol | – | – | 383 ± 1 K | 346.3 ± 0.5 K | 0.855 ± 0.0502 kcal/mol | 1.36 ± 0.1 kcal/mol
CCCCCCCC(=O)[O-].[K+] [potassium octanoate] | 435.5 ± 0.5 °C | 562.8 ± 0.5 K | 327.8 ± 0.5 K | 0.523 ± 0.043 kcal/mol | 4.01 ± 0.131 kcal/mol | 2.4 ± 0.086 kcal/mol | – | – | – | –
CCC(=O)[O-].[K+] [potassium propanoate] | 363.8 ± 0.5 °C | 352.1 ± 0.5 K | – | 4.88 ± 0.134 kcal/mol | 0.429 ± 0.0263 kcal/mol | – | – | – | – | –
CCCCCCCCCCC(=O)[O-].[K+] [potassium undecanoate] | 407.6 ± 0.5 °C | 542.5 ± 0.5 K | 410 ± 1 K | 0.375 ± 0.0526 kcal/mol | 2.9 ± 0.108 kcal/mol | 2.15 ± 0.108 kcal/mol | 354.6 ± 0.5 K | – | 2.95 ± 0.108 kcal/mol | –
CCCCCC(=O)[O-].[K+] [potassium hexanoate] | 450.5 ± 0.8 °C | 582.4 ± 0.5 K | – | 0.922 ± 0.0359 kcal/mol | 3.98 ± 0.11 kcal/mol | – | – | – | – | –
O=C[O-].[K+] [potassium formate] | 169.1 ± 0.5 °C | 415.8 ± 0.5 K | – | 2.79 ± 0.1 kcal/mol | 0.137 ± 0.0311 kcal/mol | – | – | – | – | –
CCCCCCCCCCCC(=O)[O-].[K+] [dodecanoic acid, potassium salt] | 399 ± 0.5 °C | 543.4 ± 0.5 K | 489 ± 1 K | 0.342 ± 0.0574 kcal/mol | 2.79 ± 0.115 kcal/mol | 1.31 ± 0.0574 kcal/mol | 405.5 ± 0.5 K | 328.1 ± 0.5 K | 2.28 ± 0.115 kcal/mol | 2.96 ± 0.115 kcal/mol
CCCC(=O)[O-].[K+] [potassium butanoate] | 394 ± 0.5 °C | 623.1 ± 0.5 K | 550 ± 1 K | 1.18 ± 0.0598 kcal/mol | 2.56 ± 0.0908 kcal/mol | 0.814 ± 0.0598 kcal/mol | 454.7 ± 0.5 K | – | 0.166 ± 0.0311 kcal/mol | –
CCCCCCCCC(=O)[O-].[K+] [potassium nonanoate] | 431.4 ± 0.5 °C | 544.9 ± 0.5 K | 367.6 ± 0.5 K | 0.469 ± 0.0478 kcal/mol | 3.47 ± 0.141 kcal/mol | 3.75 ± 0.141 kcal/mol | – | – | – | –
CC(=O)[O-].[K+] [potassium ethanoate] | 305.5 ± 0.5 °C | 425 ± 1 K | 331.8 ± 0.5 K | 3.92 ± 0.117 kcal/mol | 0.0704 ± 0.0234 kcal/mol | 0.0164 ± 0.0234 kcal/mol | – | – | – | –

From the NIST ThermoML archive (doi:10.1021/je400874d)
